From patent US20250221971A1, “METHODS OF TREATMENT FOR CYSTIC FIBROSIS” (Vertex Pharmaceuticals Incorporated, priority 2022, published 2025)

Assays:
[1] = molecular target: T1, CFTR in F508del/MF-HBE cells (Homo sapiens, UniProt P13569, DEL508-508); assay: Ussing chamber assay of CFTR-mediated short-circuit currents (potentiator identification); type: cell-based; details: with 10 μM Compound VII, 18-24 hours at 37° C., 20% human serum
T1 construct: human bronchial epithelial (HBE) cells derived from CF subjects heterozygous for F508del and a minimal function CFTR mutation; endogenous in cells; host or cells: primary human bronchial epithelial cells from CF subjects (F508del/MF-HBE)
T1 sequence (P13569 with tags, fused parts or gaps DEL508-508): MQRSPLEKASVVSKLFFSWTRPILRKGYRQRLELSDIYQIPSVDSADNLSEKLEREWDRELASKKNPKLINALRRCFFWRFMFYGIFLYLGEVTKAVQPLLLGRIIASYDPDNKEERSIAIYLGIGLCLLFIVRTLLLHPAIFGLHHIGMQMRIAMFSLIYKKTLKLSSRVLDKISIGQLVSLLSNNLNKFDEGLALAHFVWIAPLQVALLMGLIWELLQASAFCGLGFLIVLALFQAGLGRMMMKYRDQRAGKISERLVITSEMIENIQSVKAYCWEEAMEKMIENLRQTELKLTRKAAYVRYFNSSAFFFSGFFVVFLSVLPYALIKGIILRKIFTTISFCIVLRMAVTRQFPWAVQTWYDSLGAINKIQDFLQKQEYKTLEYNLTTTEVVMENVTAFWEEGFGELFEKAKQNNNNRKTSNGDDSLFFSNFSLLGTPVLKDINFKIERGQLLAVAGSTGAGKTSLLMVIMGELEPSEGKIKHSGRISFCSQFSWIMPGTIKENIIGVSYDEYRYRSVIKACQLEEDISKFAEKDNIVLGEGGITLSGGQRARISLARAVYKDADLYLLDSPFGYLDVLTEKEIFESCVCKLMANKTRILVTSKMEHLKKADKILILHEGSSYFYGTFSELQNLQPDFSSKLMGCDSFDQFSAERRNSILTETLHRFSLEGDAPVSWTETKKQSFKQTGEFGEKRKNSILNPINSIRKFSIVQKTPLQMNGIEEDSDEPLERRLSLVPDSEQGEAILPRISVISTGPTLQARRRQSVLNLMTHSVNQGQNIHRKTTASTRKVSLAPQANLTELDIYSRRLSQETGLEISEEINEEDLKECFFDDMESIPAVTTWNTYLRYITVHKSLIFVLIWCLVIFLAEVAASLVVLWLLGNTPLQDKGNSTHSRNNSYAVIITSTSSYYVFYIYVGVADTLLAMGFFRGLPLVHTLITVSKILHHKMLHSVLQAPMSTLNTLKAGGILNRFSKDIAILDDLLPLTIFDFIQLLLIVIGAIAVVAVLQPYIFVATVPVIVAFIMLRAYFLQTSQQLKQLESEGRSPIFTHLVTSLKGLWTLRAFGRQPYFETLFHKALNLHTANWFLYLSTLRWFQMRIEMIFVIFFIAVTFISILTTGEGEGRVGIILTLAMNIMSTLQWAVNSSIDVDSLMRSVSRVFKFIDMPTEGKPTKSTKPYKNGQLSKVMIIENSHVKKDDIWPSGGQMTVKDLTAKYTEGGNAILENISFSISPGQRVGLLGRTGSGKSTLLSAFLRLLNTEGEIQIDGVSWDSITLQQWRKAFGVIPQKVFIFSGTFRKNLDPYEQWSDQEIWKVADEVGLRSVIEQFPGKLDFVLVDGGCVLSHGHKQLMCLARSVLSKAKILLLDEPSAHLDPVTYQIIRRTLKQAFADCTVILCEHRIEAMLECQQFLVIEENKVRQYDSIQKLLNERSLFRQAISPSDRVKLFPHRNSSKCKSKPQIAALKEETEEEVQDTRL
Procedure: Ussing chamber experiments were performed using human bronchial epithelial (HBE) cells derived from CF subjects heterozygous for F508del and a minimal function CFTR mutation (F508del/MF-HBE) and cultured as previously described (Neuberger T., Burton B., Clark H., Van Goor F. Methods Mol Biol 2011:741:39-54). After four days the apical media was removed, and the cells were grown at an air liquid interface for >14 days prior to use.
To isolate the CFTR-mediated short-circuit (ISC) current, F508del/MF-HBE grown on Costar® Snapwell™ cell culture inserts were mounted in an Ussing chamber and the transepithelial ISC was measured under voltage-clamp recording conditions (Vhold=0 mV) at 37° C. The basolateral solution contained (in mM) 145 NaCl, 0.83 K2HPO4, 3.3 KH2PO4, 1.2 MgCl2, 1.2 CaCl2), 10 Glucose, 10 HEPES (pH adjusted to 7.4 with NaOH) and the apical solution contained (in mM) 145 NaGluconate, 1.2 MgCl2, 1.2 CaCl2), 10 glucose, 10 HEPES (pH adjusted to 7.4 with NaOH) and 30 μM amiloride to block the epithelial sodium channel. […] The CFTR-mediated ISC (μA/cm^2) for each condition was determined from the peak forskolin response to the steady-state current following inhibition.
The activity of the CFTR potentiator compounds on the CFTR-mediated ISC was determined in Ussing chamber studies as described above. […]

[2] = First-in-human clinical study of safety, tolerability and PK in healthy subjects; type: in vivo; details: all cohorts (Parts A, B, C), single doses 0.6-540 mg, multiple total daily doses 2-315 mg
Procedure: In a first-in-human (FIH) clinical study of Compound I, designed to evaluate the safety, tolerability, and pharmacokinetics (PK) of Compound I in healthy subjects, an assessment of drug-drug interactions (DDIs) between Compound I and itraconazole and midazolam was conducted.
This first-in-human (FIH) study of Compound I included three parts (Parts A, B, and C).
Approximately 154 healthy adult subjects were planned to be enrolled in planned cohorts. Approximately 76 subjects were planned to be enrolled in Part A, approximately 48 subjects in Part B, and approximately 30 subjects in Part C. There was no pre-specified ratio of males to females, but reasonable effort was made to enroll females of non-childbearing potential in all dosing cohorts.
Six dose escalation cohorts each were planned for Parts A and B. Additional cohorts in Part A were enrolled based on data from previous cohorts. In each cohort, approximately eight subjects were randomized 3:1 to receive Compound I or placebo as a suspension, under fasted or fed conditions. Eight subjects were enrolled in food-effect Cohort A9 to receive open-label Compound I; subsequent cohorts were dosed under fed conditions. […]
Food effect was evaluated in open-label, single-sequence Cohort A9 to evaluate the effect of food on the PK of Compound I based on emerging PK data during dose escalation. […]

EC50 [1]: < 0.5 µM
Compound: C[C@@H]1CCCCC[C@](O)(C(F)(F)F)C2=NN=C(O2)c2nc(c(C(F)(F)F)cc2N)O1 [Compound I, (6R,12R)-17-amino-12-methyl-6,15-bis(trifluoromethyl)-13,19-dioxa-3,4,18-triazatricyclo[12.3.1.12,5]nonadeca-1(18),2,4,14,16-pentaen-6-ol]
safety and tolerability [2]: generally safe and well-tolerated
